From PubChem BioAssay (NCI)
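These data come from cells grown in 96-well plates and exposed to compound for 48 hours at five concentrations. TGI marks complete inhibition of growth.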

Columns and labels:
Test in all cases: inhibition of tumour cell growth, NCI panel, 48 h
786-0 renal = test system: 786-0 renal
A498 renal = test system: A498 renal
A549 NSCLC = test system: A549 NSCLC
ACHN renal = test system: ACHN renal
CAKI-1 renal = test system: CAKI-1 renal
CCRF-CEM leukemia = test system: CCRF-CEM leukemia
COLO 205 colon = test system: COLO 205 colon
DU-145 prostate = test system: DU-145 prostate
EKVX NSCLC = test system: EKVX NSCLC
HCC-2998 colon = test system: HCC-2998 colon
HCT-116 colon = test system: HCT-116 colon
HCT-15 colon = test system: HCT-15 colon
HL-60(TB) leukemia = test system: HL-60(TB) leukemia
HOP-62 NSCLC = test system: HOP-62 NSCLC
HS 578T breast = test system: HS 578T breast
HT29 colon = test system: HT29 colon
IGROV1 ovarian = test system: IGROV1 ovarian
K-562 leukemia = test system: K-562 leukemia
KM12 colon = test system: KM12 colon
M14 melanoma = test system: M14 melanoma
MALME-3M melanoma = test system: MALME-3M melanoma
MCF7 breast = test system: MCF7 breast
MDA-MB-231 breast = test system: MDA-MB-231 breast
MDA-MB-435 = test system: MDA-MB-435
MDA-N = test system: MDA-N
MOLT-4 leukemia = test system: MOLT-4 leukemia
NCI-H226 lung = test system: NCI-H226 lung
NCI-H23 lung = test system: NCI-H23 lung
NCI-H460 lung = test system: NCI-H460 lung
NCI-H522 lung = test system: NCI-H522 lung
NCI/ADR-RES ovarian = test system: NCI/ADR-RES ovarian
OVCAR-3 ovarian = test system: OVCAR-3 ovarian
OVCAR-4 ovarian = test system: OVCAR-4 ovarian
OVCAR-5 ovarian = test system: OVCAR-5 ovarian
OVCAR-8 ovarian = test system: OVCAR-8 ovarian
PC-3 prostate = test system: PC-3 prostate
RPMI-8226 leukemia = test system: RPMI-8226 leukemia
RXF 393 renal = test system: RXF 393 renal
SF-268 CNS = test system: SF-268 CNS
SF-295 CNS = test system: SF-295 CNS
SF-539 CNS = test system: SF-539 CNS
SK-MEL-2 melanoma = test system: SK-MEL-2 melanoma
SK-MEL-28 melanoma = test system: SK-MEL-28 melanoma
SK-MEL-5 melanoma = test system: SK-MEL-5 melanoma
SK-OV-3 ovarian = test system: SK-OV-3 ovarian
SN12C renal = test system: SN12C renal
SNB-19 CNS = test system: SNB-19 CNS
SNB-75 CNS = test system: SNB-75 CNS
SR leukemia = test system: SR leukemia
SW-620 colon = test system: SW-620 colon
T-47D breast = test system: T-47D breast
TK-10 renal = test system: TK-10 renal
U251 CNS = test system: U251 CNS
UACC-62 melanoma = test system: UACC-62 melanoma
UO-31 renal = test system: UO-31 renal
HOP-92 NSCLC = test system: HOP-92 NSCLC
LOX IMVI melanoma = test system: LOX IMVI melanoma
UACC-257 melanoma = test system: UACC-257 melanoma

CC(C)C(O)(C(=O)OCN1C(=O)C2C3C=CC(C2C1=O)C1C2C(=O)N(COC(=O)C(O)(C(C)C)C(C)O)C(=O)C2C31)C(C)O (stereo unspecified)
TGI (786-0 renal): > 100 µM
TGI (A498 renal): > 100 µM
TGI (A549 NSCLC): > 100 µM
TGI (ACHN renal): > 100 µM
TGI (CAKI-1 renal): > 100 µM
TGI (CCRF-CEM leukemia): > 100 µM
TGI (COLO 205 colon): > 100 µM
TGI (DU-145 prostate): > 100 µM
TGI (EKVX NSCLC): > 100 µM
TGI (HCC-2998 colon): > 100 µM
TGI (HCT-116 colon): > 100 µM
TGI (HCT-15 colon): > 100 µM
TGI (HL-60(TB) leukemia): > 100 µM
TGI (HOP-62 NSCLC): > 100 µM
TGI (HS 578T breast): > 100 µM
TGI (HT29 colon): > 100 µM
TGI (IGROV1 ovarian): > 100 µM
TGI (K-562 leukemia): > 100 µM
TGI (KM12 colon): > 100 µM
TGI (M14 melanoma): > 100 µM
TGI (MALME-3M melanoma): > 100 µM
TGI (MCF7 breast): > 100 µM
TGI (MDA-MB-231 breast): > 100 µM
TGI (MDA-MB-435): > 100 µM
TGI (MDA-N): > 100 µM
TGI (MOLT-4 leukemia): > 100 µM
TGI (NCI-H226 lung): > 100 µM
TGI (NCI-H23 lung): > 100 µM
TGI (NCI-H460 lung): > 100 µM
TGI (NCI-H522 lung): > 100 µM
TGI (NCI/ADR-RES ovarian): > 100 µM
TGI (OVCAR-3 ovarian): > 100 µM
TGI (OVCAR-4 ovarian): > 100 µM
TGI (OVCAR-5 ovarian): > 100 µM
TGI (OVCAR-8 ovarian): > 100 µM
TGI (PC-3 prostate): > 100 µM
TGI (RPMI-8226 leukemia): > 100 µM
TGI (RXF 393 renal): > 100 µM
TGI (SF-268 CNS): > 100 µM
TGI (SF-295 CNS): > 100 µM
TGI (SF-539 CNS): > 100 µM
TGI (SK-MEL-2 melanoma): > 100 µM
TGI (SK-MEL-28 melanoma): > 100 µM
TGI (SK-MEL-5 melanoma): > 100 µM
TGI (SK-OV-3 ovarian): > 100 µM
TGI (SN12C renal): > 100 µM
TGI (SNB-19 CNS): > 100 µM
TGI (SNB-75 CNS): > 100 µM
TGI (SR leukemia): > 100 µM
TGI (SW-620 colon): > 100 µM
TGI (T-47D breast): > 100 µM
TGI (TK-10 renal): > 100 µM
TGI (U251 CNS): > 100 µM
TGI (UACC-62 melanoma): > 100 µM
TGI (UO-31 renal): > 100 µM

CC(C)(NO)/C(=N\O)c1ccco1
TGI (786-0 renal): > 100 µM
TGI (A549 NSCLC): > 100 µM
TGI (ACHN renal): > 100 µM
TGI (CAKI-1 renal): > 100 µM
TGI (COLO 205 colon): > 100 µM
TGI (DU-145 prostate): > 100 µM
TGI (EKVX NSCLC): > 100 µM
TGI (HCC-2998 colon): > 100 µM
TGI (HCT-116 colon): > 100 µM
TGI (HCT-15 colon): > 100 µM
TGI (HOP-62 NSCLC): > 100 µM
TGI (HOP-92 NSCLC): > 100 µM
TGI (HS 578T breast): > 100 µM
TGI (HT29 colon): > 100 µM
TGI (IGROV1 ovarian): > 100 µM
TGI (KM12 colon): > 100 µM
TGI (LOX IMVI melanoma): > 100 µM
TGI (M14 melanoma): > 100 µM
TGI (MALME-3M melanoma): > 100 µM
TGI (MCF7 breast): > 100 µM
TGI (MDA-MB-231 breast): > 100 µM
TGI (MDA-MB-435): > 100 µM
TGI (MDA-N): > 100 µM
TGI (MOLT-4 leukemia): 40.8 µM
TGI (NCI-H226 lung): > 100 µM
TGI (NCI-H23 lung): > 100 µM
TGI (NCI-H460 lung): > 100 µM
TGI (NCI/ADR-RES ovarian): > 100 µM
TGI (OVCAR-3 ovarian): > 100 µM
TGI (OVCAR-4 ovarian): > 100 µM
TGI (OVCAR-5 ovarian): > 100 µM
TGI (OVCAR-8 ovarian): > 100 µM
TGI (PC-3 prostate): > 100 µM
TGI (RPMI-8226 leukemia): > 100 µM
TGI (RXF 393 renal): > 100 µM
TGI (SF-268 CNS): > 100 µM
TGI (SF-295 CNS): > 100 µM
TGI (SF-539 CNS): > 100 µM
TGI (SK-MEL-2 melanoma): > 100 µM
TGI (SK-MEL-28 melanoma): > 100 µM
TGI (SK-MEL-5 melanoma): > 100 µM
TGI (SK-OV-3 ovarian): > 100 µM
TGI (SN12C renal): > 100 µM
TGI (SNB-19 CNS): > 100 µM
TGI (SW-620 colon): > 100 µM
TGI (T-47D breast): > 100 µM
TGI (TK-10 renal): > 100 µM
TGI (U251 CNS): > 100 µM
TGI (UACC-257 melanoma): > 100 µM
TGI (UACC-62 melanoma): > 100 µM
TGI (UO-31 renal): > 100 µM

C=C1C(=O)[C@@]23CC[C@@H]4[C@@]5(C)CCC[C@@]4(OC5=O)C2(C)CC[C@]1(OC)C3 (stereo partly specified)
TGI (786-0 renal): 1.17 µM
TGI (A549 NSCLC): 12.7 µM
TGI (ACHN renal): 3.98 µM
TGI (CAKI-1 renal): 3.41 µM
TGI (CCRF-CEM leukemia): 0.436 µM
TGI (COLO 205 colon): 5.64 µM
TGI (DU-145 prostate): 18 µM
TGI (EKVX NSCLC): 21.8 µM
TGI (HCC-2998 colon): 1.37 µM
TGI (HCT-116 colon): 1.88 µM
TGI (HOP-62 NSCLC): 4.56 µM
TGI (HS 578T breast): 6.69 µM
TGI (IGROV1 ovarian): 4.76 µM
TGI (K-562 leukemia): 1.24 µM
TGI (KM12 colon): 6.85 µM
TGI (LOX IMVI melanoma): 1.19 µM
TGI (M14 melanoma): 4.25 µM
TGI (MCF7 breast): 1.22 µM
TGI (MDA-MB-435): 3.22 µM
TGI (MDA-N): 2.02 µM
TGI (MOLT-4 leukemia): 1.98 µM
TGI (NCI-H23 lung): 5.07 µM
TGI (NCI-H460 lung): 6.92 µM
TGI (NCI-H522 lung): 2.36 µM
TGI (NCI/ADR-RES ovarian): 6.59 µM
TGI (OVCAR-3 ovarian): 2.34 µM
TGI (OVCAR-5 ovarian): 3.69 µM
TGI (OVCAR-8 ovarian): 4 µM
TGI (PC-3 prostate): 2.44 µM
TGI (RPMI-8226 leukemia): 0.864 µM
TGI (SF-268 CNS): 7.2 µM
TGI (SF-295 CNS): 13.4 µM
TGI (SF-539 CNS): 3.21 µM
TGI (SK-MEL-2 melanoma): 2.58 µM
TGI (SK-MEL-28 melanoma): 3.66 µM
TGI (SK-MEL-5 melanoma): 3.39 µM
TGI (SN12C renal): 4.92 µM
TGI (SNB-19 CNS): 3.63 µM
TGI (SNB-75 CNS): 3.07 µM
TGI (SR leukemia): 1.46 µM
TGI (SW-620 colon): 3.23 µM
TGI (T-47D breast): 4.6 µM
TGI (TK-10 renal): 3.18 µM
TGI (UACC-257 melanoma): 3.81 µM
TGI (UO-31 renal): 3.19 µM
